The values below come from US20140196172A1, “Organelle Targeting Nanocarriers” (Her Majesty the Queen in Right of Canada, as Repre sented …, priority 2011, published 2014).

Series [1] has as its system mitochondria of triticale mesophyll protoplasts. In words: Protoplast transformation with gfp reporter, confocal microscopy. Format: cell-based. To be noted: pWMaadA16GFP plasmid, 24 h. The protocol: (§1) The ten non-labelled oTPs listed in Tables 3 and 4 were tested for their capability to deliver biologically active DNA to chloroplasts or mitochondria using an oTP-GFP reporter construct transfection assay. oTPs are mixed with a double stranded (ds) DNA construct encoding Aequorea victoria green fluorescent protein (GFP) to form a complex. The plasmid-peptide nanocomplexes formed are incubated with triticale mesophyll protoplasts, microspores, or MDCK, Caco-2, F1112 or MG cells. Detection of a fluorescent signal by confocal microscopy and/or photometric cell imaging would indicate that the dsDNA had been transported into organelles and that transient expression of GFP had occurred. In addition, gene expression can be measured using quantitative real-time PCR to determine gfp mRNA abundance.
Wheat mitochondrial aadA16GFP reporter plasmid (pWMaadA16GFP, FIG. 11) is a 4587 base pair wheat specific mitochondrial transformation vector, which targets insertions into the fourth repeat region between the trnfM and rm18 gene cluster which is repeated three times in the Triticum aestivum mitochondrial genome. The insertion site is in the Triticum aestivum mitochondrial genome at nucleotides 300805-300878 and 300880-302834 (GenBank accession No. AP008982.1). A multiple cloning site is introduced following the tmfM target insertion sequence. […]

Series [2] relates to MG cells. As to the kind of experiment: MG cell transformation with gfp reporter, photometric cell imaging. In kind it is cell-based, bovine. To be noted: for Fluorescence observed in cells upon transfection / Expression of GFP in mitochondria: MG, mitochondrial gfp-reporter construct; for Expression of GFP in mitochondria: photometric cell imaging; for gfp expression, Photometric Cell Imaging (average counts/sec) MG: pWMaadA16GFP 5 μg + peptide 500 μg, measured at 40 h. The protocol: (§2) Uptake of labeled peptides by cells is quantified using a photometric detector/cell-imaging system (PTI). An excitation scan is run to determine if uptake has occurred as indicated by peaks at the appropriate wavelengths and if the amount changes in a dose-dependent manner compared to unlabeled cells. A time-based scan is then performed at the optimal excitation and emission wavelength to quantify total uptake, using about 20 cells/view/replicate.
as §1
(§3) Wheat mitochondrial aadA16GFP reporter plasmid (pWMaadA16GFP, FIG. 11) is a 4587 base pair wheat specific mitochondrial transformation vector, which targets insertions into the fourth repeat region between the trnfM and rm18 gene cluster which is repeated three times in the Triticum aestivum mitochondrial genome. The insertion site is in the Triticum aestivum mitochondrial genome at nucleotides 300805-300878 and 300880-302834 (GenBank accession No. AP008982.1). A multiple cloning site is introduced following the tmfM target insertion sequence. The selection marker gene is an organelle codon specific aad-gfp fusion gene, which facilitates a dual selection method of spectinomycin resistance through an aadA derivative and visual detection by GFP fluorescence (GenBank accession No. ABX39486; Khan and Maliga, Nat. Biotechnol. (1999 September) 17(9): 910-5). The selection marker gene is driven by the Triticum aestivum mitochondrial atpA gene promoter (GenBank accession No. X54387.1). The aad-gfp fusion gene is terminated with the TpsbA terminator sequence derived from the Triticum aestivum mitochondrial genome at nucleotides 62871-62565 (GenBank accession No. AP008982.1).
(§4) The dsDNA construct (pWMaadA16GFP. 100 μl of the stock solution, 5 μg) is combined with mTP1 (SEQ ID NO: 1) or mTP4 (SEQ ID NO: 4) (100 μl of the unlabelled stock, 500 μg) and incubated for 15 minutes at 37° C. An 800 μl aliquot of DMEM is added to the mixture and 100 μl of this mixture is then added to each cell monolayer (prepared as described in Example 2) that has 500 μl complete media. The cells are incubated at 37° C. in a humidified atmosphere containing 5% CO2 for 24 h to 72 hr. The uptake and expression of the GFP reporter is measured at 40 h using a photometric detector/cell-imaging system (PTI) as described in Example 2. The cells are also imaged using confocal microscopy as described in Example 2 using MitoTracker® Orange staining to visualize mitochondria.

In series [3] the test system is Caco-2 cells. As to the kind of experiment: Caco-2 cell transformation with gfp reporter, photometric cell imaging. To be noted: for Fluorescence observed in cells upon transfection / Expression of GFP in mitochondria: Caco-2, mitochondrial gfp-reporter construct; for Expression of GFP in mitochondria: photometric cell imaging; for gfp expression, Photometric Cell Imaging (average counts/sec) Caco-2: pWMaadA16GFP 5 μg + peptide 500 μg, measured at 40 h. In kind it is cell-based, human. The protocol: as §2, §1, §3, §4

Series [4] has as its system F1112 cells. In words: F1112 cell transformation with gfp reporter, photometric cell imaging. Conditions: for Fluorescence observed in cells upon transfection / Expression of GFP in mitochondria: F1112, mitochondrial gfp-reporter construct; for Expression of GFP in mitochondria: photometric cell imaging; for gfp expression, Photometric Cell Imaging (average counts/sec) F1112: pWMaadA16GFP 5 μg + peptide 500 μg, measured at 40 h. In kind it is cell-based, bovine. As for the experimental part: as §2, §1, §3, §4

“MWWRRSRTNSLRYT (listed as Arabidopsis thaliana) [mTP4]”: the “Transfection of mitochondria (GFP fluorescence)” value in series [1] is reported as “can mediate the transfection of mitochondria”. In addition, in series [2], the “Fluorescence observed in cells upon transfection” value (from here on “Fluorescence observed”) was “no fluorescence was observed”; the “Expression of GFP in mitochondria” value is given as “detected”; the “gfp expression, Photometric Cell Imaging (average counts/sec) MG” value amounted to 650000 counts/sec. Moreover, in series [3], the “Fluorescence observed” value was “no fluorescence was observed”; the “Expression of GFP in mitochondria” value is recorded as “detected”; the “gfp expression, Photometric Cell Imaging (average counts/sec) Caco-2” value came out at 570000 counts/sec. Besides, in series [4], the “Fluorescence observed” value is recorded as “no fluorescence was observed”; the “Expression of GFP in mitochondria” value was “detected”; the “gfp expression, Photometric Cell Imaging (average counts/sec) F1112” value amounted to 650000 counts/sec.
Turning to MAAWMRSLFSPLKKLWIRMH (Zea mays) [mTP2], the “Transfection of mitochondria (GFP fluorescence)” value in series [1] is recorded as “can mediate the transfection of mitochondria”.
“MFSYLPRYPLRAASARALVRATRPSYRSALLRYQ (listed as Triticum aestivum) [mTP1]”: in series [2], the “Fluorescence observed” value was “fluorescence was observed in all cells”; the “Expression of GFP in mitochondria” value is “detected”; the “gfp expression, Photometric Cell Imaging (average counts/sec) MG” value came to 1900000 counts/sec. Further, in series [3], the “Fluorescence observed” value is recorded as “fluorescence was observed in all cells”; the “Expression of GFP in mitochondria” value is recorded as “detected”; the “gfp expression, Photometric Cell Imaging (average counts/sec) Caco-2” value worked out at 2000000 counts/sec. Further, in series [4], the “Fluorescence observed” value is reported as “fluorescence was observed in all cells”; the “Expression of GFP in mitochondria” value is given as “detected”; the “gfp expression, Photometric Cell Imaging (average counts/sec) F1112” value is listed as 1900000 counts/sec.
